Measured values from ChEMBL document CHEMBL1201862, “PubChem BioAssay data set” (2004).
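How tested: cells in 96-well plates exposed to compound for 48 hours at five concentrations. GI50 marks 50% less growth.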 Active and inactive are the calls of the source. No stated cut-off is given here; in the data, active = GI50 up to about 1.1 µM and inactive = higher.

How the values were obtained:
Assay in all cases: growth of human tumour cells (NCI), 48 h
OVCAR-4 = test system: OVCAR-4
SK-OV-3 = test system: SK-OV-3
786-0 = test system: 786-0
SNB-19 = test system: SNB-19
HOP-62 = test system: HOP-62
HCC 2998 = test system: HCC 2998
LOX IMVI = test system: LOX IMVI
SF-539 = test system: SF-539
NCI-H460 = test system: NCI-H460
OVCAR-3 = test system: OVCAR-3
SK-MEL-2 = test system: SK-MEL-2
A549 = test system: A549
IGROV-1 = test system: IGROV-1
OVCAR-5 = test system: OVCAR-5
HCT-15 = test system: HCT-15
RPMI-8226 = test system: RPMI-8226

Row | Compound | GI50 (OVCAR-4) | GI50 (SK-OV-3) | GI50 (786-0) | GI50 (SNB-19) | GI50 (HOP-62) | GI50 (HCC 2998) | GI50 (LOX IMVI) | GI50 (SF-539) | GI50 (NCI-H460) | GI50 (OVCAR-3) | GI50 (SK-MEL-2) | GI50 (A549) | GI50 (IGROV-1) | GI50 (OVCAR-5) | GI50 (HCT-15) [µM] | GI50 (RPMI-8226)
1 | c1ccc2c(c1)N=C(c1cccc3ccccc13)CC(c1ccc3c(c1)OCO3)S2 (configuration not stated) | > 100 µM (inactive) | > 100 µM (inactive) | > 100 µM (inactive) | > 100 µM (inactive) | > 100 µM (inactive) | > 100 µM (inactive) | > 100 µM (inactive) | > 100 µM (inactive) | > 100 µM (inactive) | > 100 µM (inactive) | > 100 µM (inactive) | > 100 µM (inactive) | > 100 µM (inactive) | > 100 µM (inactive) |  | 
2 | N#Cc1cc([N+](=O)[O-])ccc1NC(=O)C(=O)Nn1c(S)nc2ccccc2c1=O | > 100 µM (inactive) | > 100 µM (inactive) | > 100 µM (inactive) | > 100 µM (inactive) | > 100 µM (inactive) | > 100 µM (inactive) | > 100 µM (inactive) | > 100 µM (inactive) | > 100 µM (inactive) | > 100 µM (inactive) |  | > 100 µM (inactive) | > 100 µM (inactive) | > 100 µM (inactive) | > 100 | > 100 µM (inactive)
3 | CN(C)CCNC(=O)c1cccc2c1nc(-c1ccc(F)cc1)c1ccccc12 | 5.94 µM (inactive) | 8.47 µM (inactive) | 4.65 µM (inactive) | 6.93 µM (inactive) | 1.22 µM (inactive) | 3.34 µM (inactive) | 1.83 µM (inactive) | 3.63 µM (inactive) | 0.417 µM (active) | 5.58 µM (inactive) | 10.3 µM (inactive) | 0.935 µM (active) | 2.84 µM (inactive) | 3.63 µM (inactive) | 2.67 | 
4 | Cn1nc2ccc3nccc(NCCNCCO)c3c2n1 | 40.9 µM (inactive) | 34.1 µM (inactive) | 38.5 µM (inactive) | 73.5 µM (inactive) | 47.4 µM (inactive) | 40.6 µM (inactive) | 20.4 µM (inactive) | 33.6 µM (inactive) | 18.1 µM (inactive) | 38.3 µM (inactive) |  | 40.2 µM (inactive) | 68.4 µM (inactive) | 25 µM (inactive) | 44.3 | 26.9 µM (inactive)
5 | Cc1ccc(NC(=O)/C(Cl)=C(/Cl)C(=O)O)cc1 | 18.2 µM (inactive) | 18.8 µM (inactive) | 17.3 µM (inactive) | > 100 µM (inactive) | 71.4 µM (inactive) | 19.7 µM (inactive) | 17.1 µM (inactive) |  | > 100 µM (inactive) | 18.1 µM (inactive) | 14.6 µM (inactive) | 69.8 µM (inactive) | 29.6 µM (inactive) | 21 µM (inactive) | 15.6 | 14.8 µM (inactive)
6 | O=C(Cc1ccccc1)NN1C(=O)C(Cl)C1c1cccc(O)c1 (configuration not stated) | 17.7 µM (inactive) | 28.2 µM (inactive) | 13.2 µM (inactive) | 42.7 µM (inactive) | 27.2 µM (inactive) | 20.2 µM (inactive) | 13.5 µM (inactive) |  | 15.3 µM (inactive) | 14.6 µM (inactive) | 27 µM (inactive) | 25.1 µM (inactive) | 17.2 µM (inactive) | 14.4 µM (inactive) | 18.7 | 2.84 µM (inactive)
7 | Nc1nc(O)c2c(ncn2CC(O)CO)n1 (configuration not stated) | > 100 µM (inactive) | > 100 µM (inactive) | > 100 µM (inactive) | > 100 µM (inactive) | > 100 µM (inactive) |  | > 100 µM (inactive) | > 100 µM (inactive) | > 100 µM (inactive) | > 100 µM (inactive) | > 100 µM (inactive) | > 100 µM (inactive) | > 100 µM (inactive) | > 100 µM (inactive) | > 100 | > 100 µM (inactive)
8 | C=CC(Br)(CBr)CCC(Br)C(C)(C)Br (configuration not stated) | 17.1 µM (inactive) | 19.4 µM (inactive) | 12.9 µM (inactive) |  | 21 µM (inactive) |  | 12.4 µM (inactive) | 15.9 µM (inactive) | 10.4 µM (inactive) |  | 13.6 µM (inactive) | 14.6 µM (inactive) | 15.2 µM (inactive) | 18.5 µM (inactive) | 16.5 | 2.79 µM (inactive)
